These compounds were tested against N-type calcium channel (Homo sapiens, UniProt Q00975) (assay: N-channel FLIPR assay (inhibition of K+-evoked calcium flux in neuronally differentiated IMR32 cells)). Conditions: 80 mM K+ stimulus, read-out: IC50 for the N-type calcium channel, as measured by the FLIPR assay.
Assay type: cell-based

N-type calcium channel, sequence (Q00975 whole entry): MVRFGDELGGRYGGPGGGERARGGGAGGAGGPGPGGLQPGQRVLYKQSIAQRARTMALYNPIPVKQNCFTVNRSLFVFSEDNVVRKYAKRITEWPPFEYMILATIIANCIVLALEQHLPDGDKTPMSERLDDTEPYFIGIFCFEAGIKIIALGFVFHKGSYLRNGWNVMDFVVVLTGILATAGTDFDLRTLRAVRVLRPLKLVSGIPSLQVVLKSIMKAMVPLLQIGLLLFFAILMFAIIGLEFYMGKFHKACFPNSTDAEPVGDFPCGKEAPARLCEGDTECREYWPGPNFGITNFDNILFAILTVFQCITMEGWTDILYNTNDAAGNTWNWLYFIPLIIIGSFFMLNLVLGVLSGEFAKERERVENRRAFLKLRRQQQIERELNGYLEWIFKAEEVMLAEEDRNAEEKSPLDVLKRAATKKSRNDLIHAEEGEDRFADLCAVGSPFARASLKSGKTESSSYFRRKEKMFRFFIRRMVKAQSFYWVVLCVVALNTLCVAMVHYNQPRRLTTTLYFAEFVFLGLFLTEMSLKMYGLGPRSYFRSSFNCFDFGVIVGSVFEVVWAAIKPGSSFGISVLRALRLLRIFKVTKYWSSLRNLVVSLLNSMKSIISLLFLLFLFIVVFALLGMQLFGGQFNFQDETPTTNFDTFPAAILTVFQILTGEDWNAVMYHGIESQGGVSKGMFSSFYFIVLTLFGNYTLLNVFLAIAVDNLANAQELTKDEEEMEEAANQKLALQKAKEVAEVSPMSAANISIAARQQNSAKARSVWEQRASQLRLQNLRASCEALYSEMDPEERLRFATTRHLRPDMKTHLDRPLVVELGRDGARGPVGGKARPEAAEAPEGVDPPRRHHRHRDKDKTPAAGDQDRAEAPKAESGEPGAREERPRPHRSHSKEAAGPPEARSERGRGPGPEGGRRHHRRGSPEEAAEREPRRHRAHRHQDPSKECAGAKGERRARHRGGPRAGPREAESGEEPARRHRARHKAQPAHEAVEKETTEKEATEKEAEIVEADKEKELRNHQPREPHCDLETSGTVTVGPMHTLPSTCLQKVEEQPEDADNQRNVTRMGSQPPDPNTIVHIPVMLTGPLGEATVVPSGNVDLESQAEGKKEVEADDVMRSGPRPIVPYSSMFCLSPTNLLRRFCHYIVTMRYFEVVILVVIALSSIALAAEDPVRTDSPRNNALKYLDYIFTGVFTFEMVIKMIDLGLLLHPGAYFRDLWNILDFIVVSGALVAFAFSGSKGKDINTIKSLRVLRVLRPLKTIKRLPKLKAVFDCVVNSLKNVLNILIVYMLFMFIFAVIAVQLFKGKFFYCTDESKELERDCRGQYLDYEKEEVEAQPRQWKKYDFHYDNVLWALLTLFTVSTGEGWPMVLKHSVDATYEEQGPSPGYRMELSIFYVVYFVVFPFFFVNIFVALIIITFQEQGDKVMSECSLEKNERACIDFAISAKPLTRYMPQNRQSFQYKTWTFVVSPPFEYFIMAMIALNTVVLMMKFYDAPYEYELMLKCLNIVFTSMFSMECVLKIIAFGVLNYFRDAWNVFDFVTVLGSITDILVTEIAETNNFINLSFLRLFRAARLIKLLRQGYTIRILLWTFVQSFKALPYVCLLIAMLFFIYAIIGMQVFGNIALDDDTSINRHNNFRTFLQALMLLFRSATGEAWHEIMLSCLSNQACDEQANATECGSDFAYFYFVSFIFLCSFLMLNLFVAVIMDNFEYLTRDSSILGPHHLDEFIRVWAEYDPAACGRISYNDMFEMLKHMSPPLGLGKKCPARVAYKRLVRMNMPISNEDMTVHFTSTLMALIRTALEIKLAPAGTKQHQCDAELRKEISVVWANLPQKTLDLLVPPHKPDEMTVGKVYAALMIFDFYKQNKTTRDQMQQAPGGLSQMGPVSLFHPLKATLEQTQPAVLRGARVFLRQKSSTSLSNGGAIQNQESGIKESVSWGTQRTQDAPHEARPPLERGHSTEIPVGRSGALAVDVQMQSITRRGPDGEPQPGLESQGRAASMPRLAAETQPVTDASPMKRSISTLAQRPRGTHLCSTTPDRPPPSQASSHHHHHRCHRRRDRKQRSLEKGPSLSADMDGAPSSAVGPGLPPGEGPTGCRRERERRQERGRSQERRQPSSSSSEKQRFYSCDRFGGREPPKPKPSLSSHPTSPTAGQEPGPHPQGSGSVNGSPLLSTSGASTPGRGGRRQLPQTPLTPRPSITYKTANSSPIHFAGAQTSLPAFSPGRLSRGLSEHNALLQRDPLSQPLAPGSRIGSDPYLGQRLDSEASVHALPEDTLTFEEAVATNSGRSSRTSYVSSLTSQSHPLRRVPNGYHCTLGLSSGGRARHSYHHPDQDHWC
N-type calcium channel, sequence (P54284 whole entry partner): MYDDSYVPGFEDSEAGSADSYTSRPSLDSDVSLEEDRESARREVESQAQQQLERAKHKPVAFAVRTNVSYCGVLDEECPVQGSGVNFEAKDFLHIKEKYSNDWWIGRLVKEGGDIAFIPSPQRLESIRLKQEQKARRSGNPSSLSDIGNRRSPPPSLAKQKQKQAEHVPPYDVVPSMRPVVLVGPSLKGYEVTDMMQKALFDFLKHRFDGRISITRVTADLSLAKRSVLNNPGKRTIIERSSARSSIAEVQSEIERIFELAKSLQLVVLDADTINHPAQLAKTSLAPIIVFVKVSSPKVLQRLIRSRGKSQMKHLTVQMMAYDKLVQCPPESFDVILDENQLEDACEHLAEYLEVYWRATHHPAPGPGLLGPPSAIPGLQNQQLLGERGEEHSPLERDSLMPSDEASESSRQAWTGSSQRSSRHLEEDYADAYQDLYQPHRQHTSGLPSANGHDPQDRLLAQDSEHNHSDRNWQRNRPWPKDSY
N-type calcium channel, sequence (P54289 25-956 partner limits assumed): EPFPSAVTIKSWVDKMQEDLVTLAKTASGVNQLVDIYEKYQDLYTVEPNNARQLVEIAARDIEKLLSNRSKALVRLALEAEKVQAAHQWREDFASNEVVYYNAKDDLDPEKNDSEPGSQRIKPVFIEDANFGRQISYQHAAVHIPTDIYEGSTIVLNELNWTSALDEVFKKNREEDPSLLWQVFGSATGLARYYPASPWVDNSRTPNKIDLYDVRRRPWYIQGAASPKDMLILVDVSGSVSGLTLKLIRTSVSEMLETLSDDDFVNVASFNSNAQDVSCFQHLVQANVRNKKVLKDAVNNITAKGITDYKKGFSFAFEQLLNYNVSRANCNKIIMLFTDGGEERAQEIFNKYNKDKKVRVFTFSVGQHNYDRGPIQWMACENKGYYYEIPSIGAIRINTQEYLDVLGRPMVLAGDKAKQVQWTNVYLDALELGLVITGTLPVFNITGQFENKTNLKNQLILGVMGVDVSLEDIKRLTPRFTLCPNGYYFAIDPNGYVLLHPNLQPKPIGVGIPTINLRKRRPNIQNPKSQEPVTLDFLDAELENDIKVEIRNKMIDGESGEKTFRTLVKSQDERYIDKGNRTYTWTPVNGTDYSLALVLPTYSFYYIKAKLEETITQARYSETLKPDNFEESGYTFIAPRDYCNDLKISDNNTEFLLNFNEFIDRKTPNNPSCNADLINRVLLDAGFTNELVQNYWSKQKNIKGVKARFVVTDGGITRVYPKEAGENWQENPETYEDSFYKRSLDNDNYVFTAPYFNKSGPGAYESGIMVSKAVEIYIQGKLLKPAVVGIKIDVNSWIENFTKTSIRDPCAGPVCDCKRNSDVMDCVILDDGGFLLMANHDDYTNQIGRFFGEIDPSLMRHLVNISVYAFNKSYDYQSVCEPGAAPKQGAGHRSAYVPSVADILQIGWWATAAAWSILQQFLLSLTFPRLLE
N-type calcium channel, sequence (P54289 957-1103 partner limits assumed): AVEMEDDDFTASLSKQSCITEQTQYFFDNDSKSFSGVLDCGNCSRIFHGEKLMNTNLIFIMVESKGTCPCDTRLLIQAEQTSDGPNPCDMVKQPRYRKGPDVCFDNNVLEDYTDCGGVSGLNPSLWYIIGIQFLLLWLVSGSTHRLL

IC50 [µM] | SMILES
3.57 | Nc1nc(Nc2ccc3nc(-c4ccccc4)cc(N)c3c2)cc(C(F)(F)F)n1 [Example 4, N6-(2-Amino-6-trifluoromethyl-pyrimidin-4-yl)-2-phenyl-quinoline-4,6-diamine]
2.37 | Cc1cc(N)c2cc(Nc3cc(-c4ccccc4F)nc(N)n3)ccc2n1 [Example 66, N6-[2-Amino-6-(2-fluoro-phenyl)-pyrimidin-4-yl]-2-methyl-quinoline-4,6-diamine]
3.56 | Cc1cc(N)c2cc(Nc3cc(-c4cccc(F)c4)nc(N)n3)ccc2n1 [Example 74, N6-[2-Amino-6-(3-fluoro-phenyl)-pyrimidin-4-yl]-2-methyl-quinoline-4,6-diamine]
10.5 | COc1ccccc1-c1cc(Nc2ccc3nc(-c4ccccc4)cc(N)c3c2)nc(N)n1 [Example 75, N6-[2-Amino-6-(2-methoxy-phenyl)-pyrimidin-4-yl]-2-phenyl-quinoline-4,6-diamine]

Reference: patent publication US6815447B2, “N-type calcium channel antagonists for the treatment of pain” (Astrazeneca AB, priority 2000, dated 2004)
